Results taken from patent US12054502B2, “Multifunctional immunity-targeted micromolecule anti-cancer medicine Bestazomib (Bestazomib) and preparation method and application thereof” (SHANDONG HUBBLE KISEN BIOLOGICAL TECHNOLOGY CO., LTD., priority 2018, dated 2024).
Structures can show the parent of a compound that is named as a salt. Where two headings read alike, the source gives them in different places.

How the values were obtained:
[1] = tested on: human prostate cancer PC-3 cell line; assay: MTT cell proliferation inhibition, PC-3; type: cell-based; settings: average of three tests, read-out: IC50 tumor cell proliferation, PC-3
From the text: (§1) The in vitro cell proliferation inhibitory activity test of the target compound adopts the MTT method. Human leukemia K562 cell line, human myeloma U266 cell line, human lung cancer A549 cell, human prostate cancer PC-3 cell line, human lymphoma U937 cell line, human liver cancer PLC/PRF/5 cell line, and human embryonic kidney cell HEK293, human normal hepatocyte HL7702 were taken, and all adopted routine culture. Logarithmic growth phase cells were used in the experiment. The cell suspensions of the above cells were taken and counted under an inverted microscope, and the medium was added to adjust the number of cells to 1×10^5/mL. A 96-well cell culture plate was taken for cell inoculation and drug experiment. The peripheral holes are not used (filled with sterile PBS). Blank control group, negative control group, positive control group and a drug experiment group were set up. The blank control group only added 150 L/Well of cell culture solution, the negative control group was inoculated with 100 µL/well of cell suspension and 50 µL/well of cell culture medium was added, the positive control group was inoculated with 100 µL/well of cell suspension and 50 µL/well of positive control drug solution was added, and the drug experiment group was inoculated with 100 L/Well of cell suspension and 50 µL/well of the test compound solution was added, the positive control group and the drug experimental group are respectively set up with 5 different final drug concentrations: […], 3 parallel re-wells for each drug concentration. After the drug was added, the 96-well cell culture plate was incubated at 37° C., 5% CO2 and saturated humidity for 48 hours, and 10 μL of 0.5% MTT staining solution was added to each well. […] Measure the OD value of each well with a microplate reader at a wavelength of 570 nm, and the cell growth inhibition rate is calculated according to the following formula: […]

[2] = tested on: human liver cancer PLC/PRF/5 cell line; assay: MTT cell proliferation inhibition, PLC/PRF/5; type: cell-based; settings: average of three tests, read-out: IC50 tumor cell proliferation, PLC/PRF/5
From the text: as §1

[3] = target: Aminopeptidase N (APN) (Homo sapiens (Human), UniProt P15144); assay: Inhibition of aminopeptidase N in vitro (L-leucyl p-nitroaniline substrate, absorbance 405 nm); type: biochemical; settings: average of three tests
From the text: Aminopeptidase N interacts with its commercial substrate L-leucyl p-nitroaniline (purchased from Sigma) to produce p-nitroaniline that is absorbed at 405 nm, and the concentration of p-nitroaniline is positively correlated to the enzyme activity. Measure the absorbance at 405 nm, and calculate the inhibition rate based on the absorbance of the inhibitor group and the control group, and calculate the IC50 value.

[4] = tested on: human myeloma U266 cell line; assay: MTT cell proliferation inhibition, U266; type: cell-based; settings: average of three tests, read-out: IC50 tumor cell proliferation, U266
From the text: as §1

[5] = tested on: human lymphoma U937 cell line; assay: MTT cell proliferation inhibition, U937; type: cell-based; settings: average of three tests, read-out: IC50 tumor cell proliferation, U937
From the text: as §1

[6] = target: 20S Proteasome (Homo sapiens (Human), UniProt P28074); assay: 20S proteasome detection kit, in vitro proteasome activity test (7-AMC fluorescence); type: biochemical; settings: average of three tests
From the text: The proteasome interacts with its substrate to produce the fluorescent substance 7-amino-4-methylcoumarin (7-AMC), and the concentration of 7-AMC is positively correlated with the activity of the proteasome. Measure the fluorescence intensity at 380/460 nm to calculate the inhibition rate based on the absorbance of the inhibitor group and the control group, and calculate the IC50 value.

[7] = tested on: human lung cancer A549 cell; assay: MTT cell proliferation inhibition, A549; type: cell-based; settings: average of three tests, read-out: IC50 tumor cell proliferation, A549
From the text: as §1

[8] = tested on: Human leukemia K562 cell line; assay: MTT cell proliferation inhibition, K562; type: cell-based; settings: average of three tests, read-out: IC50 tumor cell proliferation, K562
From the text: as §1

[9] = tested on: human normal hepatocyte HL7702; assay: MTT proliferation inhibition on normal human cells, HL7702; type: cell-based; settings: L02, 48 hours, average of three tests
From the text: (§2) The in vitro cell proliferation inhibitory activity test of the target compound adopts the MTT method. Human leukemia K562 cell line, human myeloma U266 cell line, human lung cancer A549 cell, human prostate cancer PC-3 cell line, human lymphoma U937 cell line, human liver cancer PLC/PRF/5 cell line, and human embryonic kidney cell HEK293, human normal hepatocyte HL7702 were taken, and all adopted routine culture. Logarithmic growth phase cells were used in the experiment. The cell suspensions of the above cells were taken and counted under an inverted microscope, and the medium was added to adjust the number of cells to 1×10^5/mL. A 96-well cell culture plate was taken for cell inoculation and drug experiment. The peripheral holes are not used (filled with sterile PBS). Blank control group, negative control group, positive control group and a drug experiment group were set up. […] Measure the OD value of each well with a microplate reader at a wavelength of 570 nm, and the cell growth inhibition rate is calculated according to the following formula: […]

[10] = tested on: human embryonic kidney cell HEK293; assay: MTT proliferation inhibition on normal human cells, HEK293; type: cell-based; settings: 48 hours, average of three tests
From the text: as §2

[11] = tested on: macrophages; assay: Function test of clearance rate of charcoal particles (macrophage phagocytosis) in mice; type: in vivo, Kunming mice; settings: for carbon clearance index (K) / phagocytosis index(α): mice, administered 2 weeks, mean ± standard deviation
Procedure: The mononuclear macrophage system is a very important defense system, which has a powerful ability to swallow and clear foreign particles. When a certain concentration of charcoal particles enters the body through the tail vein of the mice, they are carried to the liver, spleen, etc. by the flow of blood, and the macrophages of these organs can remove these charcoal particles. Within a certain concentration range, the rate of macrophages' elimination of charcoal particles is exponentially related to their dose, that is, the rate of phagocytosis is directly proportional to the concentration of charcoal particles in the blood. Therefore, taking the logarithm of the concentration of charcoal particles in the blood of mice as the ordinate and the time as the abscissa, the slope K represents the phagocytic rate of macrophages, but this is an uncorrected phagocytic index. In fact, its phagocytic activity is also related to the weight of the liver and spleen of mice. Different weights result in different K values. Therefore, it is generally expressed by the corrected phagocytic index α, which reflects the phagocytic activity per unit tissue weight. The calculation formulas of K and a are as follows: K=(log A1−log A2)/(t2−t1) α=(k^1/3×body weight)/(liver weight+spleen weight)
Materials: Kunming mice (female, 4-5 weeks old), Indian ink, normal saline, Na2CO3 solution (0.1% g/v), UV ultraviolet visible photometer.
Kunming mice were randomly divided into groups and administered for 2 weeks. One hour after the last administration, each mouse was injected intravenously with 0.1 mL/10 g of Indian ink 5 times diluted with normal saline, and started timing immediately after injection, 20 μL of blood samples were accurately collected from the orbital venous plexus and added into 2 mL of 0.1% Na2CO3 solution at 2 min (t1) and 10 min (t2) time points, respectively. After mixing evenly, use 0.1% Na2CO3 solution as the control group, each administration group was the experimental group, the absorbance at two time points of t1 and t2 were measured by ultraviolet spectrophotometer at 600 nm, and counted as A1 and A2. The clearance index is calculated by the calculation formula of the above K value. In addition, after the completion of blood collection, the mice were sacrificed by neck removal, and the liver and spleen were taken out and weighed. Calculate the phagocytic index α.

[12] = tested on: liver cancer H22; assay: Inhibition of liver cancer H22 lung metastasis in mice; type: in vivo, Kunming mice; settings: intragastric administration, 2.69-4.48 mg/kg, two cycles; FIG. 1-4
Procedure: Take well-grown H22 mice with liver cancer, extract ascites, add sterile PBS solution to dilute to a concentration of 2.5×10^7/mL, and inoculate Kunming mice through tail vein with 200 μL each. The Kunming mice with overweight or underweight were excluded, randomly grouped, and the drug was administrated according to the dosing schedule.
The Kunming mice inoculated with H22 tumors were weighed and randomly divided into the following 6 groups, with 7 mice in each group. […] The mice were sacrificed 13 days after the inoculation. The calculation formula for the inhibition rate of lung metastasis of liver cancer was as follows: […]

[13] = tested on: H22 liver ascites model; assay: Survival test of H22 liver ascites model; type: in vivo, Kunming mice; settings: equal molar amount with Ixazomib, FIG. 5-6
Procedure: Take well-grown H22 mice with liver cancer, extract ascites, add sterile PBS solution to dilute to a concentration of 2.5×10^7/mL, and inoculate the abdominal cavity of Kunming mice with 200 μL each. 5 days later, the animals were randomly grouped to administrate the drug. The day of inoculation was the first day. The body weight of the animals was recorded at the time of administration. The mice were randomly weighed and divided into the following 6 groups, with 10 mice in each group. […] The mice were administered according to the predetermined dosage, weighed and recorded respectively.
(§3) Use Origin7.5 software's one-way analysis of variance (One-Way ANOVA) function to calculate the overall difference; use t-test to compare each group with the blank group, and the life extension rate of each drug group was calculated by the following formula: […]

[14] = tested on: B16F10 melanoma cells; assay: Subcutaneous tumor survival test with B16F10 melanoma cells; type: in vivo, C57 mice
Procedure: The B16F10 melanoma cells in the logarithmic growth phase were taken, diluted with sterile PBS solution to a concentration of 1.5×10^7 cells/mL, and inoculated them subcutaneously in C57 mice with 150 μL each. 5 days later, the animals were randomly assigned to administer the drug. The day of inoculation was the first day. The body weight of the animals was recorded at the time of administration. The mice were randomly weighed and divided into the following 5 groups. […] The mice were administered according to the predetermined dosage, weighed and recorded respectively. Continuous observation until the death of the mouse was the end of observation, and the time of death of each mouse was recorded. The time of death of the mice in each group was counted.
as §3

[15] = Homo sapiens, PLC-PRF-5, 48 hours

Chain of Aminopeptidase N (APN) (P15144 whole entry, species assumed): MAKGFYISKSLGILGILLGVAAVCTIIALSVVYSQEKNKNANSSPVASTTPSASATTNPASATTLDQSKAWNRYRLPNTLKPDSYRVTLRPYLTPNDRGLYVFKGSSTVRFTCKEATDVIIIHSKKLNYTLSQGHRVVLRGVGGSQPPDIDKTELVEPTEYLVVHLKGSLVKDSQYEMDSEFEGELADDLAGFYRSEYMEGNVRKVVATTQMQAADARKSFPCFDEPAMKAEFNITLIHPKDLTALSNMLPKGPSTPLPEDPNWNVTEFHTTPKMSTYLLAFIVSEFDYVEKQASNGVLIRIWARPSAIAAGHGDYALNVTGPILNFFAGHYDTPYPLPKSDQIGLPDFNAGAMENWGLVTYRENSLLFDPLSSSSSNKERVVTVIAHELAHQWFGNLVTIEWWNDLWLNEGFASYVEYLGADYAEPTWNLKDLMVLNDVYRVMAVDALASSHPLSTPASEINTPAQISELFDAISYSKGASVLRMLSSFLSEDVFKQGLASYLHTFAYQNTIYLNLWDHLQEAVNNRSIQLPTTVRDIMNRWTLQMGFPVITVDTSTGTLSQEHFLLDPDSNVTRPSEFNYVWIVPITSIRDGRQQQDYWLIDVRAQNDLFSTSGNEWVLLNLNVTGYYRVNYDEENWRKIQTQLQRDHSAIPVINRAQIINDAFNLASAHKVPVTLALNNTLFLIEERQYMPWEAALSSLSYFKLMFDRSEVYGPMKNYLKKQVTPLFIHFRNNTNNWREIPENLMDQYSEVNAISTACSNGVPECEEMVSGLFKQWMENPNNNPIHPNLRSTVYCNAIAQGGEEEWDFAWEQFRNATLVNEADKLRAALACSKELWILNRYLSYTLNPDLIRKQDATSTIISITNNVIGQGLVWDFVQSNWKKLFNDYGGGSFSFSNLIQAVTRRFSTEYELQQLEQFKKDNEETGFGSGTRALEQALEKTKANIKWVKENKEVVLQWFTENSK

Row | Structure (SMILES) | IC50 ([1]; Homo sapiens, PC-3, 48 hours) | IC50 [2, 15] | IC50 [3] | IC50 ([4]; Homo sapiens, U-266, 48 hours) | IC50 ([5]; Homo sapiens, U-937, 48 hours) | IC50 [6] | IC50 ([7]; Homo sapiens, A549, 48 hours) | IC50 ([8]; Homo sapiens, K562, 48 hours) | IC50 [9] | IC50 [10] | further results
1 | CC(C)C[C@H](NC(=O)[C@@H](O)[C@H](N)Cc1ccccc1)B(O)O [Bestazomib, (R)-1-((2S,3R)-3-amino-2-hydroxy-4-phenylbutyramide)-3-methylbu tylboronic acid] | 65.7 ± 5.83 µM | 79.6 ± 6.32 µM | 3.87 µM | 36.6 ± 2.07 µM | 15.5 ± 1.41 µM | 10.2 µM | 98.4 ± 7.51 µM | 37.1 ± 2.28 µM |  |  | 
2 | CC(C)C[C@H](NC(=O)CNC(=O)c1cc(Cl)ccc1Cl)B(O)O [Ixazomib, reference compound] |  |  | 18.2 µM |  |  |  |  |  | 4.04 ± 0.63 µM | 17.1 ± 2.27 µM | 
3 | CC(C)C[C@H](NC(=O)[C@@H](O)[C@H](N)Cc1ccccc1)B1OC(=O)C(CC(=O)O)(CC(=O)O)O1 [Bestazomib Citrate, 2,2′-(2-((R)-1-((2S,3R)-3-amino-2-hydroxy-4-phenylbutanoylamino)-3-methylbutyl)-5-oxo-1,3,2-dioxaborolan-4,4-diyl) diacetic acid] | 45.6 ± 3.16 µM | 54.7 ± 4.12 µM | 2.14 µM | 21.7 ± 1.87 µM | 6.42 ± 0.64 µM | 8.56 µM | 63.6 ± 5.71 µM | 12.3 ± 1.46 µM | 371 ± 70.9 µM | 446 ± 19.4 µM | phagocytic ability of macrophages in mice ([11]; compared with positive control Ixazomib): significantly stronger than that of the positive control Ixazomib; carbon clearance index (K) ([11]; high-dose 4.48 mg/kg/4 d po.): 0.063 ± 0.0002; phagocytosis index(α) ([11]; high-dose 4.48 mg/kg/4 d po.): 21.628 ± 0.026; carbon clearance index (K) ([11]; low-dose 2.69 mg/kg/4 d po.): 0.066 ± 0.0077; phagocytosis index(α) ([11]; low-dose 2.69 mg/kg/4 d po.): 24.842 ± 0.969; carbon clearance index (K) ([11]; medium-dose 3.59 mg/kg/4 d po.): 0.076 ± 0.0016; phagocytosis index(α) ([11]; medium-dose 3.59 mg/kg/4 d po.): 21.620 ± 0.154; anti-tumor activity (H22 lung metastasis) [12]: strong anti-tumor activity; survival time of mice [13]: better than the prolonged time of the positive drug Ixazomib; survival time of B16F10 melanoma mice ([14]; 4, 6, 9 mg/kg/4d, FIG. 7): significantly prolong the survival time; survival time of mice compared with Ixazomib ([14]; medium-dose 6 mg/kg/4d and high-dose 9 mg/kg/4d vs Ixazomib 4 mg/kg/4d): better survival time of mice in the medium-dose and high-dose than the positive drug Ixazomib
4 | CC(C)C[C@H](NC(=O)[C@@H](O)[C@H](N)Cc1ccccc1)C(=O)O [Bestatin, reference compound] |  |  |  |  |  |  |  |  |  |  | IC50 ([1]; 48 hours): > 200 µM; IC50 ([2]; 48 hours): > 200 µM; IC50 ([4]; 48 hours): > 200 µM; IC50 ([5]; 48 hours): > 200 µM; IC50 ([7]; 48 hours): > 200 µM; IC50 ([8]; 48 hours): > 200 µM
